Assay results published in BindingDB's records for doi:10.1021/acs.jmedchem.9b02038 (China Pharmaceutical University, 2020).

Assays:
[1] = Inhibition of Vps34 in human MCF7-LC3 cells assessed as rapamycin-induced autophagy
[2] = Inhibition of Vps34 in human MCF7-LC3 cells assessed as starvation-induced autophagy

## Cc1cc(Nc2cc(Cl)nc(Oc3ccc([N+](=O)[O-])cc3)n2)n[nH]1
[1]
  IC50: 40 nM
[2]
  IC50: 90 nM
